Experimental data published in ChEMBL document CHEMBL2203120, “Contribution to investigation of antimicrobial activity of styrylquinolines” (Bioorg Med Chem, 2012).
Values after ≈ are worked out from the molar mass of the structure shown. Where a SMILES comes first, the peptide text is derived from it. Bridges are numbered along the chain shown (N, C = ends). [ ]: non-standard residue; d: D form. The star is where a group is joined. Ileψ(thiazoline)Cys = CC[C@H](C)[C@H](N)C1=N[C@H](C(=O)*)CS1; dOrn = NCCC[C@@H](N)C(=O)O

How the values were obtained:
[1] = Lipophilicity, log P of compound by RP-HPLC analysis; assay type: physicochemical
Staphylococcus aureus [2] = assay: Antimicrobial activity against Staphylococcus aureus CCM 4516/08 after 24 hrs by broth microdilution method; assay type: functional; conditions: CCM 4516/08, 24 h
[3] = test system: Staphylococcus epidermidis; assay: Antimicrobial activity against Staphylococcus epidermidis H 6966/08 after 24 hrs by broth microdilution method; assay type: functional; conditions: H 6966/08, 24 h
Pichia kudriavzevii [4] = assay: Antimicrobial activity against Candida krusei ATCC 6258 after 24 hrs by broth microdilution test; assay type: functional; conditions: ATCC 6258, 24 h
[5] = test system: Staphylococcus epidermidis; assay: Antimicrobial activity against Staphylococcus epidermidis H 6966/08 after 48 hrs by broth microdilution method; assay type: functional; conditions: H 6966/08, 48 h
Staphylococcus aureus [6] = assay: Antimicrobial activity against methicillin-resistant Staphylococcus aureus H 5996/08 after 48 hrs by broth microdilution method; assay type: functional; conditions: H 5996/08, 48 h
Candida albicans [7] = assay: Antimicrobial activity against Candida albicans ATCC 44859 after 24 hrs by broth microdilution test; assay type: functional; conditions: ATCC 44859, 24 h
Staphylococcus aureus [8] = assay: Antimicrobial activity against methicillin-resistant Staphylococcus aureus H 5996/08 after 24 hrs by broth microdilution method; assay type: functional; conditions: H 5996/08, 24 h
Trichosporon beigelii [9] = assay: Antimicrobial activity against Trichosporon beigelii 1188 after 24 hrs by broth microdilution test; assay type: functional; conditions: Trichosporon beigelii, 1188, 24 h
Staphylococcus aureus [10] = assay: Antimicrobial activity against Staphylococcus aureus CCM 4516/08 after 48 hrs by broth microdilution method; assay type: functional; conditions: CCM 4516/08, 48 h
Aspergillus fumigatus [11] = assay: Antimicrobial activity against Aspergillus fumigatus 231 after 24 hrs by broth microdilution test; assay type: functional; conditions: Aspergillus fumigatus, 231, 24 h
Candida albicans [12] = assay: Antimicrobial activity against Candida albicans ATCC 44859 after 48 hrs by broth microdilution test; assay type: functional; conditions: ATCC 44859, 48 h
Nakaseomyces glabratus [13] = assay: Antimicrobial activity against Candida glabrata 20/I after 24 hrs by broth microdilution test; assay type: functional
[14] = test system: Trichophyton mentagrophytes; assay: Antimicrobial activity against Trichophyton mentagrophytes 445 after 72 hrs by broth microdilution test; assay type: functional; conditions: Trichophyton mentagrophytes, 445, 72 h
Lichtheimia corymbifera [15] = assay: Antimicrobial activity against Absidia corymbifera 272 after 48 hrs by broth microdilution test; assay type: functional; conditions: Lichtheimia corymbifera, 272, 48 h
Candida tropicalis [16] = assay: Antimicrobial activity against Candida tropicalis 156 after 24 hrs by broth microdilution test; assay type: functional; conditions: Candida tropicalis, 156, 24 h
Aspergillus fumigatus [17] = assay: Antimicrobial activity against Aspergillus fumigatus 231 after 48 hrs by broth microdilution test; assay type: functional; conditions: Aspergillus fumigatus, 231, 48 h
Candida tropicalis [18] = assay: Antimicrobial activity against Candida tropicalis 156 after 48 hrs by broth microdilution test; assay type: functional; conditions: Candida tropicalis, 156, 48 h
Trichosporon beigelii [19] = assay: Antimicrobial activity against Trichosporon beigelii 1188 after 48 hrs by broth microdilution test; assay type: functional; conditions: Trichosporon beigelii, 1188, 48 h
Lichtheimia corymbifera [20] = assay: Antimicrobial activity against Absidia corymbifera 272 after 24 hrs by broth microdilution test; assay type: functional; conditions: Lichtheimia corymbifera, 272, 24 h
Nakaseomyces glabratus [21] = assay: Antimicrobial activity against Candida glabrata 20/I after 48 hrs by broth microdilution test; assay type: functional
Pichia kudriavzevii [22] = assay: Antimicrobial activity against Candida krusei ATCC 6258 after 48 hrs by broth microdilution test; assay type: functional; conditions: ATCC 6258, 48 h

Structure (SMILES) | logP [1] | MIC90 (Staphylococcus aureus [2]) [µM] | MIC90 [3] [µM] | MIC90 [5] [µM] | MIC90 (Staphylococcus aureus [6]) [µM] | MIC80 (Candida albicans [7]) [µM] | MIC90 (Staphylococcus aureus [8]) [µM] | MIC80 (Trichosporon beigelii [9]) [µM] | MIC90 (Staphylococcus aureus [10]) [µM] | MIC50 (Aspergillus fumigatus [11]) [µM] | MIC80 (Nakaseomyces glabratus [13]) [µM] | also measured
Oc1c(Cl)cc(Cl)c2ccc(/C=C/c3ccccc3Cl)nc12 | 6.02 | – | – | – | – | – | – | – | – | – | – | –
Oc1ccccc1/C=C/c1ccc2c(Cl)cc(Cl)c(O)c2n1 | 5.07 | – | – | – | – | – | – | – | – | – | – | –
Oc1c(Cl)cc(Cl)c2ccc(/C=C/c3ccc(/C=C/c4ccc5c(Cl)cc(Cl)c(O)c5n4)cc3)nc12 | 8.88 | 62.5 (≈ 34.6 µg/mL) | 62.5 (≈ 34.6 µg/mL) | 125 (≈ 69.3 µg/mL) | 125 (≈ 69.3 µg/mL) | 0.98 (≈ 0.543 µg/mL) | 62.5 (≈ 34.6 µg/mL) | 3.9 (≈ 2.16 µg/mL) | 125 (≈ 69.3 µg/mL) | 3.9 (≈ 2.16 µg/mL) | 0.49 (≈ 0.272 µg/mL) | MIC80 (Pichia kudriavzevii [4]): 0.98 µM (≈ 0.543 µg/mL); MIC80 (Candida albicans [12]): 3.9 µM (≈ 2.16 µg/mL); MIC50 [14]: 3.9 µM (≈ 2.16 µg/mL)
CC[C@H](C)[C@H](N)C1=N[C@H](C(=O)N[C@@H](CC(C)C)C(=O)N[C@H](CCC(=O)O)C(=O)N[C@H](C(=O)N[C@H]2CCCCNC(=O)[C@H](CC(N)=O)NC(=O)[C@@H](CC(=O)O)NC(=O)[C@H](Cc3cnc[nH]3)NC(=O)[C@@H](Cc3ccccc3)NC(=O)[C@H]([C@@H](C)CC)NC(=O)[C@@H](CCCN)NC2=O)[C@@H](C)CC)CS1 [BACITRACIN] ({Ileψ(thiazoline)Cys}-L[dE]IK[dOrn]I[dF]H[dD]N; lactam 4-C) | – | 15.6 (≈ 22.2 µg/mL) | 15.6 (≈ 22.2 µg/mL) | 31.6 (≈ 45 µg/mL) | 31.6 (≈ 45 µg/mL) | – | 15.6 (≈ 22.2 µg/mL) | – | 31.2 (≈ 44.5 µg/mL) | – | – | –
OC(Cn1cncn1)(Cn1cncn1)c1ccc(F)cc1F [FLUCONAZOLE] | – | – | – | – | – | 0.06 (≈ 0.0184 µg/mL) | – | 0.24 (≈ 0.0735 µg/mL) | – | > 125 | 0.98 (≈ 0.3 µg/mL) | MIC50 (Lichtheimia corymbifera [15]): > 125 µM; MIC80 (Candida tropicalis [16]): 0.12 µM (≈ 0.0368 µg/mL); MIC50 (Aspergillus fumigatus [17]): > 125 µM; MIC80 (Candida tropicalis [18]): > 125 µM; MIC80 (Trichosporon beigelii [19]): 0.48 µM (≈ 0.147 µg/mL); MIC80 (Candida albicans [12]): 0.12 µM (≈ 0.0368 µg/mL); MIC50 (Lichtheimia corymbifera [20]): > 125 µM
CCOc1ccc(/C=C/c2ccc3cccc(O)c3n2)cc1 | 4.55 | > 500 | > 500 | > 500 | > 500 | > 500 | > 500 | > 250 | > 500 | > 500 | > 250 | MIC80 (Candida tropicalis [16]): > 500 µM; MIC80 (Pichia kudriavzevii [4]): > 500 µM; MIC50 [14]: > 500 µM; MIC50 (Lichtheimia corymbifera [20]): > 500 µM
Oc1ccc(/C=C/c2ccc3c(Cl)cc(Cl)c(O)c3n2)c(O)c1 | 4.68 | 15.6 (≈ 5.44 µg/mL) | 15.6 (≈ 5.44 µg/mL) | 31.2 (≈ 10.9 µg/mL) | 62.5 (≈ 21.8 µg/mL) | – | 31.2 (≈ 10.9 µg/mL) | – | 62.5 (≈ 21.8 µg/mL) | – | – | –
Oc1ccccc1/C=C/c1ccc2ccccc2n1 | 4.34 | > 250 | > 500 | > 250 | > 250 | > 125 | > 250 | > 125 | > 250 | > 125 | > 125 | MIC80 (Candida tropicalis [16]): > 125 µM; MIC80 (Pichia kudriavzevii [4]): > 125 µM; MIC50 [14]: > 125 µM; MIC50 (Lichtheimia corymbifera [20]): > 125 µM
Oc1ccc(/C=C/c2ccc3c(Cl)cc(Cl)c(O)c3n2)cc1 | 5.07 | 7.81 (≈ 2.59 µg/mL) | 62.5 (≈ 20.8 µg/mL) | 62.5 (≈ 20.8 µg/mL) | 31.2 (≈ 10.4 µg/mL) | – | 31.2 (≈ 10.4 µg/mL) | – | 15.6 (≈ 5.19 µg/mL) | – | – | MIC80 (Candida tropicalis [18]): > 125 µM; MIC80 (Trichosporon beigelii [19]): > 125 µM; MIC80 (Nakaseomyces glabratus [21]): > 125 µM; MIC80 (Candida albicans [12]): > 125 µM; MIC80 (Pichia kudriavzevii [22]): > 125 µM
CC1(C)S[C@@H]2[C@H](NC(=O)COc3ccccc3)C(=O)N2[C@H]1C(=O)O [PENICILLIN V] | – | 0.24 (≈ 0.0841 µg/mL) | 31.2 (≈ 10.9 µg/mL) | 125 (≈ 43.8 µg/mL) | 125 (≈ 43.8 µg/mL) | – | 125 (≈ 43.8 µg/mL) | – | 0.24 (≈ 0.0841 µg/mL) | – | – | –
Oc1ccc(/C=C/c2ccc3c(Cl)cc(Cl)c(O)c3n2)cc1O | 4.68 | 62.5 (≈ 21.8 µg/mL) | 15.6 (≈ 5.44 µg/mL) | 31.2 (≈ 10.9 µg/mL) | 62.5 (≈ 21.8 µg/mL) | – | 31.2 (≈ 10.9 µg/mL) | – | 62.5 (≈ 21.8 µg/mL) | – | – | –
